# Experimental data taken from US9618502B2, “Muscle stem cell or myoblast, method for screening substances that participate in metabolic conversion using same, and pharmaceutical composition comprising substance obtained from said screening method” (TOKYO METROPOLITAN GERIATRIC HOSPITAL AND INSTITUTE OF …, priority 2013, dated 2017).
# B1: mouse fibroblast growth factor 21: protein consisting of the amino acid sequence of SEQ ID NO: 1, mouse fibroblast growth factor 21 (protein, listed as Mus musculus)
# chain: MEWMRSRVGTLGLWVRLLLAVFLLGVYQAYPIPDSSPLLQFGGQVRQRYLYTDDDQDTEAHLEIREDGTVVGAAHRSPESLLELKALKPGVIQILGVKASRFLCQQPDGALYGSPHFDPEACSFRELLLEDGYNVYQSEAHGLPLRLPQKDSPNQDATSWGPVRFLPMPGLLHEPQDQAGFLPPEPPDVGSSDPLSMVEPLQGRSPSYAS
# Columns and labels:
# Type in all cases: cell-based, mouse
# [1] = tested on: cells expressing the myosin-heavy chain IIb protein; assay: Screening method of substances involved in a metabolic shift: myotube cells from immortalized muscle stem cells, mCherry fluorescence; details: for area of cells expressing the myosin-heavy chain IIb protein: two days treatment; for number of myotube cells that generate fluorescence of mCherry (cells expressing myosin-heavy chain IIb): compared to the negative control
# Protocol: (§1) In this Example, 27 test compounds were tested by the screening method of substances involved in a metabolic shift using the immortalized muscle stem cells (satellite cells) prepared in Example 2.
# (§2) The immortalized muscle stem cells (1×10^5) were seeded on a 60 mm dish or the immortalized muscle stem cells (2×10^3) were seeded on a 96 well plate. The cells were cultured in a DMEM containing 20% FBS, bFGF (10 ng/mL), and IFNy (10 ng/mL) at 33° C. for 1 day, and then, cultured in a DMEM containing 5% HS at 37° C. for 3 days. Subsequently, test substances were serially diluted by a DMEM containing 5% horse serum at an appropriate dilution rate, and the diluted substances were added to the dishes respectively. After two days treatment, fluorescences of YFP, Sirius, mCherry, and mCerulean in the living cells were observed using a fluorescence microscope, and the number of cells, which generate the respective fluorescence, was measured.
# (§3) In this example, additional test compounds were tested using the immortalized muscle stem cells (satellite cells) prepared in Example 2. The screening method of substances involved in a metabolic shift was performed by repeating a procedure of Example 3.
# [2] = tested on: cells expressing the myosin-heavy chain I protein; assay: Screening method of substances involved in a metabolic shift: myotube cells from immortalized muscle stem cells, YFP fluorescence; details: for area of cells expressing the myosin-heavy chain I protein: two days treatment; for number of myotube cells that generate fluorescence of YFP (myosin-heavy chain I): compared to the negative control
# Protocol: as §1, §2, §3
# [3] = tested on: immortalized muscle stem cells (satellite cells); assay: Proliferation inhibition screening method using satellite cells; details: 5 nM, five days of culturing, versus control without rapamycin
# Protocol: The rapamycin was obtained by the metabolic shift screening method in Example 3. In this Example, whether or not the rapamycin can be screened by the proliferation inhibition screening method using satellite cells was examined.
# The immortalized muscle stem cells (1×10^4) were seeded on a 35 mm dish. The cells were cultured in a DMEM containing 20% FBS, bFGF (lOng/mL), and IFNγ (10 ng/mL) at 33° C. for 1 day, and then the rapamycin was diluted to a concentration of 5 nM by a DMEM containing 5% FBS, and the diluted rapamycin was added to the dish. The number of cells was counted after five days of culturing. […] The term “Control” means negative control in which the rapamycin was not added. The proliferation of satellite cells was inhibited by adding rapamycin.
Molecule,"area of cells expressing the myosin-heavy chain IIb protein ([1]; 100 nM, negative control 44.5%) [%]","area of cells expressing the myosin-heavy chain IIb protein ([1]; 500 nM, negative control 44.5%) [%]",number of myotube cells that generate fluorescence of mCherry (cells expressing myosin-heavy chain IIb) [1],"area of cells expressing the myosin-heavy chain I protein ([2]; 100 ng/mL, negative control 19.5%) [%]","area of cells expressing the myosin-heavy chain I protein ([2]; 500 ng/mL, negative control 19.5%) [%]",number of myotube cells that generate fluorescence of YFP (myosin-heavy chain I) [2],"area of cells expressing the myosin-heavy chain IIb protein ([1]; 500 ng/mL, negative control 36.2%) [%]","area of cells expressing the myosin-heavy chain I protein ([2]; 1 nM, negative control 28.4%) [%]","area of cells expressing the myosin-heavy chain I protein ([2]; 10 nM, negative control 28.4%) [%]","area of cells expressing the myosin-heavy chain I protein ([2]; 100 nM, negative control 28.4%) [%]","area of cells expressing the myosin-heavy chain I protein ([2]; 4 nM, negative control 25.3%) [%]","area of cells expressing the myosin-heavy chain IIb protein ([1]; 4 nM, negative control 41.8%) [%]",proliferation of satellite cells (number of cells) [3]
"N[C@@H](Cc1cc(I)c(Oc2ccc(O)c(I)c2)c(I)c1)C(=O)O [T3, triiodothyronine]",71.3,70.0,increased,,,,,,,,,,
"IL-15: IL-15, one of the test substances",,,increased,35.0,36.1,increased,53.0,,,,,,
C[C@H](Cc1ccc2c(c1)OC(C(=O)[O-])(C(=O)[O-])O2)NC[C@H](O)c1cccc(Cl)c1.[Na+].[Na+] [CL316243],,,remains static,,,increased,,49.3,53.8,57.8,,,
CO[C@H]1C[C@@H]2CC[C@@H](C)[C@@](O)(O2)C(=O)C(=O)N2CCCC[C@H]2C(=O)O[C@H]([C@H](C)C[C@@H]2CC[C@@H](O)[C@H](OC)C2)CC(=O)[C@H](C)/C=C(\C)[C@@H](O)[C@@H](OC)C(=O)[C@H](C)C[C@H](C)/C=C/C=C/C=C/1C [rapamycin],,,decreased,,,increased,,,,,60.9,8.4,inhibited
B1,,,remains static,,,increased,,40.6,48.0,54.9,,,
